Experimental data as given in US4956368A, “Metabolites and prodrug formulations of 8-[4-[4-(1,2-benzisothiazol-3-yl)-1-piperazinyl]butyl]-8-azaspiro[4.5]de cane-7,9-dione” (Bristol-Myers Company, priority 1989, dated 1990).
Where two headings read alike, the source gives them in different places.

Key:
dopaminergic activity = test: Inhibition of Apomorphine-Induced (APO) Stereotypy, blockade of dopaminergic activity; format: in vivo, rats; conditions: Rattus norvegicus, read-out: APO ED50
Text: The following in vivo test systems (Table 2) are illustrative of the conventional testing used to classify and differentiate a psychotropic agent from a non-specific CNS depressant. |2. Inhibition of Apomorphine-Induced (APO) Stereotypy - | an assessment of blockade of dopaminergic activity in rats | as measured by attenuation of the behavioral syndrome | caused by the dopamine agonist, apomorphine. cf: Janssen, | et al, Arzneimittel.

dopamine D2 receptors = conditions: background statement; cited from earlier work
[1] = system: Serotonin Type 1A (5-HT1A); conditions: background statement; cited from earlier work
[2] = system: alpha-adrenergic receptor; conditions: background statement; cited from earlier work
dopamine receptor = conditions: following chronic administration; background statement; cited from earlier work
Alpha-1 = test: Receptor binding test RB2, [3H] WB-4104 ligand, Phentolamine specific binding agent
Text: (§1) As indication of the psychotropic activity and specificity of a compound, state of the art in vitro central nervous system receptor binding (RB) methodology can be employed. […] Inhibition of radiolabeled ligand binding at such sites is considered a measure of the test compound's ability to affect corresponding central nervous system function in vivo.
(§2) Some of the more common binding tests employed are listed below in Table 1.

Serotonin Type 2 (5-HT2) [3] = target: T1, Serotonin Type 2 (5-HT2) (Rattus norvegicus, UniProt P14842); conditions: background statement; cited from earlier work
T1 construct: from tissue; frontal cortex in the cited method
T1 sequence (P14842 whole entry): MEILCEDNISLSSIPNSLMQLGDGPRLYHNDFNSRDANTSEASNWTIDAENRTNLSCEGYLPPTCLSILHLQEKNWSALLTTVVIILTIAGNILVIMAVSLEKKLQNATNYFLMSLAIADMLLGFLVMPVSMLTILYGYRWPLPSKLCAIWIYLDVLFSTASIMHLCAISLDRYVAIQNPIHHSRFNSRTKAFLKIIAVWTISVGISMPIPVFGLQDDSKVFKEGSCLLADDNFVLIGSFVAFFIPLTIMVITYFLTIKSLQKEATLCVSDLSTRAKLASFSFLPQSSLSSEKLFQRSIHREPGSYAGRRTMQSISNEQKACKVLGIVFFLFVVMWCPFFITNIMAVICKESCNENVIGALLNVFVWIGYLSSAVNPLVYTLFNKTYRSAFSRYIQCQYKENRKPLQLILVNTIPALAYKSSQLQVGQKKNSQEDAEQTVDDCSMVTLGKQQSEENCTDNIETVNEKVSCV

sigma receptor = conditions: background statement; cited from earlier work
trained fasted rats = test: Conditioned Avoidance Response (CAR), attenuation of avoidance response to electrical shock; format: in vivo; conditions: Rattus norvegicus
Text: (§3) The following in vivo test systems (Table 2) are illustrative of the conventional testing used to classify and differentiate a psychotropic agent from a non-specific CNS depressant.

Serotonin Type 2 (5-HT2) [4] = target: T1, Serotonin Type 2 (5-HT2); test: Receptor binding test RB3, [3H] Spiperone ligand, D-Lysergide specific binding agent
Text: as §1, §2

[5] = target: Dopamine/Spiperone/neuroleptic receptor site; test: Receptor binding test RB1, [3H] Spiperone ligand, D(+)Butaclamol specific binding agent
Text: as §1, §2

[6] = target: T2, Serotonin Type 1A (5-HT1A) (Bos taurus, UniProt F6Q2H9); test: Receptor binding test RB4, [3H] 8-OH-DPAT ligand, 8-OH-DPAT specific binding agent
T2 construct: from tissue
T2 sequence (F6Q2H9 1-422): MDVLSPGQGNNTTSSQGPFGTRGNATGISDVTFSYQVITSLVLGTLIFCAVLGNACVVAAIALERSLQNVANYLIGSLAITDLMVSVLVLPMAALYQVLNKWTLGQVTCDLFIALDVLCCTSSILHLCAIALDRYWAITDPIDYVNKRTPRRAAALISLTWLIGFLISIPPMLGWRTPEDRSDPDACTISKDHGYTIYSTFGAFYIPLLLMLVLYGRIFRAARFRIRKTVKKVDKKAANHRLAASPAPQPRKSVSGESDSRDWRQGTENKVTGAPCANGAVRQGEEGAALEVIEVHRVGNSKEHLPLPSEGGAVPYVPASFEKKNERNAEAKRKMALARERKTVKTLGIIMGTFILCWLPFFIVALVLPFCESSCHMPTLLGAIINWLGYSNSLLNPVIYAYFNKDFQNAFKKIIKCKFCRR
Text: as §1, §2

psychotropic activity = test: in vivo screens predictive of antipsychotic activity, overall (Table 7); design: species or system rats; conditions: compared to tiospirone
Text: as §3
1. Conditioned Avoidance Response (CAR) - measure of a
drug's tranquilizing activity as determined by its'
attenuation of avoidance response to electrical shock in
trained fasted rats. cf: Albert, Pharmacologist, -4, 152 (1962);
2. Inhibition of Apomorphine-Induced (APO) Stereotypy -
an assessment of blockade of dopaminergic activity in rats
as measured by attenuation of the behavioral syndrome
caused by the dopamine agonist, apomorphine. cf: Janssen,
et al, Arzneimittel. Forsch., --17, 841 (1966).

[7] = system: central nervous system receptor; test: in vitro receptor binding (RB) tests, overall (Table 6)
Text: As indication of the psychotropic activity and specificity of a compound, state of the art in vitro central nervous system receptor binding (RB) methodology can be employed. Certain compounds (commonly referred to as ligands) have been identified which preferentially bind to specific high affinity sites in brain tissue dealing with psychotropic activity. Inhibition of radiolabeled ligand binding at such sites is considered a measure of the test compound's ability to affect corresponding central nervous system function in vivo.
as §2

IC50 ([6]; read-out: RB4 IC50)	Compound	ED50 (dopaminergic activity; po)	IC50 (Alpha-1)	ED50 (trained fasted rats; po)	IC50 (Serotonin Type 2 (5-HT2) [4])	IC50 [5]	further results
–	O=C1CC2(CCCC2)CC(=O)N1CCCCN1CCN(c2nsc3ccccc23)CC1 [Reference # i, 8-[4-[4-(1,2-benzisothiazol-3-yl)-1-piperazinyl]butyl]-8-azaspiro[4.5]decane-7,9-dione]	13.1 mg/kg	47 nM	10.9 mg/kg	–	–	in vitro affinity for dopamine D2 receptors (dopamine D2 receptors): appreciable; in vitro interactions at serotonin 5-HT1A receptors [1]: potent; in vitro interactions at alpha-adrenergic receptor sites [2]: potent; dopamine receptor supersensitivity (dopamine receptor): does not cause dopamine receptor supersensitivity; in vitro interactions at serotonin 5-HT2 receptors (Serotonin Type 2 (5-HT2) [3]): potent; in vitro interactions at sigma receptor sites (sigma receptor): potent
–	O=C1CC2(CCCC2)CC(=O)N1CCC(O)CN1CCN(c2nsc3ccccc23)CC1 (centres unmarked) [Reference # 7]	–	8.3 nM	> 80 mg/kg	10.2 nM	111 nM	–
1850 nM	O=C1CC2(CCC(O)C2)CC(=O)N1CCCCN1CCN(c2n[s+]([O-])c3ccccc23)CC1 (centres unmarked) [Reference # 3]	–	372 nM	–	1480 nM	> 100000 nM	–
–	c1ccc2c(N3CCNCC3)nsc2c1 [Reference # 14, 4-(1,2-benzisothiazol-3-yl)1H-piperazine]	–	510 nM	–	110 nM	> 1000 nM	IC50 [6]: 179 nM
–	O=C1CC2(CCC(O)C2)CC(=O)N1CCCCN1CCN(c2nsc3ccccc23)CC1 (centres unmarked) [Reference # 2, 2-Hydroxy-8-[4-[4-(1,2-benzisothiazol-3-yl)-1-piperazinyl]butyl]-8-azaspiro[4.5]decane-7,9-dione]	–	0.876 nM	> 100 mg/kg	2.05 nM	52.5 nM	–
> 1000 nM	O=C1CN(C2=NS(=O)(=O)c3ccccc32)CCN1 [Reference # 17, 4-(1,2-Benzisothiazol-1,1-dioxo-3-yl)-2-oxo-lH-piperazine]	–	13100 nM	–	> 100000 nM	–	–
1120 nM	O=C1CC2(CCCC2)CC(=O)N1CCCCN1CCN(c2n[s+]([O-])c3ccccc23)CC1 (centres unmarked) [Reference # ii, 8-[4-[4-(1-oxo-l,2-benzisothiazol-3-yl) -1-piperazinyl]butyl]-8-azaspiro[4.5]decane-7,9-dione, reference compound]	9.6 mg/kg	331 nM	7.6 mg/kg	276 nM	3490 nM	potency in in vivo screens predictive of antipsychotic activity (psychotropic activity): did not affect its potency; in vitro binding affinity compared to tiospirone [7]: attenuation of in vitro binding affinity
–	O=C1CC2(CCC(O)C2)CC(=O)N1CCC(O)CN1CCN(c2nsc3ccccc23)CC1 (centres unmarked) [Reference # 9]	–	7.15 nM	–	19.8 nM	491 nM	–
–	O=C1CCC2(C1)CC(=O)N(CCCCN1CCN(c3nsc4ccccc34)CC1)C(=O)C2 [Reference # 5, 2-Oxo-8-[4-[4-(1,2-benzisothiazol-3-yl)-1-piperazinyl]butyl]-8-azaspiro[4.5]decane-7,9-dione]	–	1.3 nM	–	2.92 nM	68.3 nM	ED50 (dopaminergic activity; sc): > 50 mg/kg; ED50 (trained fasted rats; sc): 60.3 mg/kg
> 100000 nM	CC(C)(C)OC(=O)N1CCN(C2=NS(=O)(=O)c3ccccc32)CC1 [Reference # 18, 1,1-Dimethylethyl 4-(1,2-Benzisothiazol-1,1-dioxo-3-yl)-1piperazinecarboxylate]	–	> 100000 nM	–	–	> 1000 nM	–
–	O=C1CC2(CCCC2)C(O)C(=O)N1CCCCN1CCN(c2nsc3ccccc23)CC1 (centres unmarked) [Reference # 10, 8-[4-[4-(1,2-Benzisothiazol-3-yl)-1-piperazinyl]butyl]-6-hydroxy-8-azaspiro[-4.5]decane-7,9-dione]	26 mg/kg	–	8.4 mg/kg	1.1 nM	–	–
–	O=C1CC2(CCCC2)CC(=O)N1CCCCN1CCN(C2=NS(=O)(=O)c3ccccc32)CC1 [Reference # 1]	> 100 mg/kg	274 nM	> 100 mg/kg	25000 nM	> 1000 nM	–

Compound	IC50 ([6]; read-out: RB4 IC50)	ED50 (dopaminergic activity; po)	IC50 (Alpha-1)	ED50 (trained fasted rats; po)	IC50 (Serotonin Type 2 (5-HT2) [4])	IC50 [5]	further results
CCCCCCCCCC(=O)OC1CCC2(CC(=O)N(CCCCN3CCN(c4nsc5ccccc45)CC3)C(=O)C2)C1 (centres unmarked) [Reference # 12, 8-[4-[4-(1,2-Benzisothiazol-3-yl)-1-piperazinyl]butyl]-7,9-dioxo-8-azaspiro[4.5]decan-2-yl Decanoate]	35.8 nM	–	7.22 nM	–	10.2 nM	153 nM	–
